Measured values taken from ChEMBL document CHEMBL4428076 (J Med Chem, 2016).
pEC50, pIC50, pKi: −log10 of the molar value. Active and inactive are the calls of the source. No cut-off for these calls is given here.

Tests used:
[1] = species on record: Mus musculus; experiment: animal or person; settings: CD-1, sc, 0.5 h
Description: Antinociceptive activity in sc dosed CD-1 mouse assessed as increase in reaction time measured 30 mins post dose by radiant heat tail flick assay

[2] = system: Mus musculus; experiment: Antinociceptive activity in CD-1 mouse assessed as increase in reaction time at 0.75 ug, icv administered on day 6 after MOR1-exon1 antisense oligodeoxynucleotide injection on day 1, 3 and 5 by radiant heat tail flick assay; type: functional, organism-based
[3] = species on record: Mus musculus; experiment: animal or person; settings: CD-1, sc, 0.5 h; remark: listed apart in the source
Description: Antinociceptive activity in sc dosed CD-1 mouse assessed as increase in latency latency to respond with hind paw lick or shake/flutter measured 30 mins post dose by hot plate test

[4] = system: Mus musculus; experiment: Antinociceptive activity in sc dosed CD-1 mouse assessed as increase in reaction time administered twice daily at dosing intervals of 12 hrs for 5 days by radiant heat tail flick assay; type: functional; settings: CD-1, sc
[5] = target: T1, Mu-type opioid receptor (Homo sapiens, UniProt P35372); experiment: Activation of mu opioid receptor-1 (unknown origin) expressed in CHO cells assessed as beta-arrestin-2 recruitment at 10 uM after 90 mins by beta-galactosidase complementation assay; type: cell-based; settings: 1.5 h
T1 sequence (P35372 whole entry): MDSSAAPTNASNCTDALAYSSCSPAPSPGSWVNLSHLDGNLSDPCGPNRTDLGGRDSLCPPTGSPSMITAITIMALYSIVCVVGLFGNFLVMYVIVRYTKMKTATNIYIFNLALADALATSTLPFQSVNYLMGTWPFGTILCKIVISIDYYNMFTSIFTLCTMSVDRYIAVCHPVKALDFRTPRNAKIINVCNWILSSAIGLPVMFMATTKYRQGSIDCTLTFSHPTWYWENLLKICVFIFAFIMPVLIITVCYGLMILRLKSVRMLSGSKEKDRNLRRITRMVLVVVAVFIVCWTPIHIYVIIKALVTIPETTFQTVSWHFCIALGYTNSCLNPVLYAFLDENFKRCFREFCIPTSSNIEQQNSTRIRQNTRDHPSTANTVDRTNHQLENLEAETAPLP

[6] = system: Mus musculus; experiment: Antinociceptive activity in sc dosed CD-1 mouse assessed as increase in reaction time measured 15 mins post dose by radiant heat tail flick assay; type: functional; settings: CD-1, sc, 0.25 h
[7] = target: Mu-type opioid receptor (Mus musculus) (UniProt P42866); experiment: Agonist activity at mouse mu opioid receptor-1 expressed in CHO cell membranes assessed as [35S]GTPgammaS binding incubated for 60 mins by scintillation spectroscopic analysis relative to DAMGO; type: functional
Sequence of Mu-type opioid receptor (Mus musculus) (P42866 whole entry): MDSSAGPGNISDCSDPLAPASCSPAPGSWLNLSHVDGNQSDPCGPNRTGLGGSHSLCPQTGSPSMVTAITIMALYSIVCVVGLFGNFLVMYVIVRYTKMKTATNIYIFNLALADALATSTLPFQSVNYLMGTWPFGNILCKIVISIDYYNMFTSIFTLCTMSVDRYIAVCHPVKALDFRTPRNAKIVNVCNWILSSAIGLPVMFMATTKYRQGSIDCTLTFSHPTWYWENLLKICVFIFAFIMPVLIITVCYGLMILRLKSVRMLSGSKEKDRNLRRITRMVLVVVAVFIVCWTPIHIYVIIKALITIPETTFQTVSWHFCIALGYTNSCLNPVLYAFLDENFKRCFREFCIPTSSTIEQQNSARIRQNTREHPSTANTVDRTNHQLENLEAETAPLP

[8] = target: T2, Mu-type opioid receptor (Mus musculus, UniProt P42866); experiment: Agonist activity at mouse mu opioid receptor-1 expressed in CHO cell membranes assessed as [35S]GTPgammaS binding incubated for 60 mins by scintillation spectroscopic analysis; type: functional
T2 sequence (P42866 whole entry): as above

[9] = target: T3, Kappa-type opioid receptor (Mus musculus, UniProt P33534); experiment: Antagonist activity at mouse kappa opioid receptor-1 expressed in CHO cell membranes assessed as inhibition of U50,488H-induced [35S]GTPgammaS binding incubated for 60 mins by scintillation spectroscopic analysis; type: functional
T3 sequence (P33534 whole entry): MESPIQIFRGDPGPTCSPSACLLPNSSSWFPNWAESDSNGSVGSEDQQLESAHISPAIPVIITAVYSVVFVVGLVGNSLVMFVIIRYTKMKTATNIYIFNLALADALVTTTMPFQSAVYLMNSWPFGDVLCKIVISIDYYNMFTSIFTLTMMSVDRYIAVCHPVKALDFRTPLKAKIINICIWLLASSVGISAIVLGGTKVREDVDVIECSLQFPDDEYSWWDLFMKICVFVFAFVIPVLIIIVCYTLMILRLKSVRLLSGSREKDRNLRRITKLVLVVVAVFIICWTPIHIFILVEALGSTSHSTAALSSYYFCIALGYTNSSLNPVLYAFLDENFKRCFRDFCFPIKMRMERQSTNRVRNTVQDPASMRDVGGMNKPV

[10] = target: T1, Mu-type opioid receptor; experiment: Inhibition of DAMGO-induced beta-arrestin-2 recruitment at mu opioid receptor-1 (unknown origin) expressed in CHO cells preincubated for 30 mins followed by DAMGO addition measured after 90 mins by beta-galactosidase complementation assay; type: cell-based
[11] = target: T2, Mu-type opioid receptor; experiment: Displacement of [125I]-IBNtxA from mouse mu opioid receptor-1 expressed in CHO cell membranes incubated for 90 mins
[12] = target: T3, Kappa-type opioid receptor; experiment: Displacement of [125I]-IBNtxA from mouse kappa opioid receptor-1 expressed in CHO cell membranes incubated for 90 mins
[13] = target: T4, Delta-type opioid receptor (Mus musculus, UniProt P32300); experiment: Displacement of [125I]-IBNtxA from mouse delta opioid receptor-1 expressed in CHO cell membranes incubated for 90 mins
T4 sequence (P32300 whole entry): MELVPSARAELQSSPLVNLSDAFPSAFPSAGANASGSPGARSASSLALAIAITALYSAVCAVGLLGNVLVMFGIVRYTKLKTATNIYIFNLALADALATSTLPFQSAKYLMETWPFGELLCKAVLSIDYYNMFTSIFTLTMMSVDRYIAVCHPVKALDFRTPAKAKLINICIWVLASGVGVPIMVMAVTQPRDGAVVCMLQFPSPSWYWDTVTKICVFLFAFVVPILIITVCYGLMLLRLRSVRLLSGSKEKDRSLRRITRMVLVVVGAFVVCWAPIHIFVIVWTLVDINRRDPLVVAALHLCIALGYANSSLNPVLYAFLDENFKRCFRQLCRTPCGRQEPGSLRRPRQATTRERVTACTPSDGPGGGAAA

[14] = target: Delta-type opioid receptor (Mus musculus) (UniProt P32300); experiment: Agonist activity at mouse delta opioid receptor-1 expressed in CHO cell membranes assessed as [35S]GTPgammaS binding incubated for 60 mins by scintillation spectroscopic analysis relative to DPDPE; type: functional
Sequence of Delta-type opioid receptor (Mus musculus) (P32300 whole entry): as above

[15] = target: T4, Delta-type opioid receptor; experiment: Agonist activity at mouse delta opioid receptor-1 expressed in CHO cell membranes assessed as [35S]GTPgammaS binding incubated for 60 mins by scintillation spectroscopic analysis; type: functional
[16] = target: T4, Delta-type opioid receptor; experiment: Antagonist activity at mouse delta opioid receptor-1 expressed in CHO cell membranes assessed as inhibition of DPDPE-induced [35S]GTPgammaS binding incubated for 60 mins by scintillation spectroscopic analysis; type: functional
[17] = system: Mus musculus; experiment: Antinociceptive activity in CD-1 mouse assessed as increase in reaction time at 10 ug, icv administered on day 6 after DOR1-exon3 antisense oligodeoxynucleotide injection on day 1, 3 and 5 by radiant heat tail flick assay; type: functional, organism-based

Row | Structure (SMILES) | Activity [5] | ED50 [6] [mg/kg] | Emax [7] [%] | pEC50 [8] | pIC50 [9] | pKi [11] | pKi [12] | pKi [13] | pIC50 [16] | further results
1 | CN1CC[C@]23c4c5ccc(O)c4O[C@H]2[C@@H](O)C=C[C@H]3[C@H]1C5 [MORPHINE] | – | – | – | – | – | – | – | – | – | ED50 [1]: 2 to 2.5 mg/kg; Activity [2]: inactive; ED50 [3]: 1.7 mg/kg; ED50 [4]: 12.1 mg/kg
2 | CC[C@@H]1CN2CCc3c([nH]c4cccc(OC)c34)[C@@H]2C[C@@H]1/C(=C\OC)C(=O)OC | Not Active | 166 | 65 | – | – | – | – | – | – | –
3 | CC[C@@H]1CN2CC[C@@]3(O)C(=Nc4cccc(OC)c43)[C@@H]2C[C@@H]1/C(=C\OC)C(=O)OC | Not Active | 0.46 | 77 | 7.28 | 5.60 | 7.43 | – | – | – | inhibition [10]: Dose-dependent effect
4 | CC[C@@H]1CN2CC[C@@]3(C(=O)c4c(OC)cccc4N3Cc3ccccc3)[C@@H]2C[C@@H]1/C(=C\OC)C(=O)OC | – | – | – | – | – | 6.60 | 6.87 | 6.59 | – | –
5 | CC[C@@H]1CN2CC[C@]3(Nc4cccc(OC(C)=O)c4C3=O)[C@@H]2C[C@@H]1/C(=C\OC)C(=O)OC | – | 0.38 | 120 | 8.41 | – | 8.60 | 7.51 | 7.70 | – | –
6 | CC[C@@H]1CN2CC[C@]3(Nc4cccc(-c5ccccc5)c4C3=O)[C@@H]2C[C@@H]1/C(=C\OC)C(=O)OC | Not Active | 1 | 123 | 8.85 | 6.77 | 9.04 | 7.29 | 9.10 | – | Emax [14]: 89%; pEC50 [15]: 9.08
7 | CC[C@@H]1CN2CC[C@]3(Nc4ccccc4C3=O)[C@@H]2C[C@@H]1/C(=C\OC)C(=O)OC | Not Active | 0.24 | 116 | 8.85 | 6.60 | 9.34 | 7.72 | 8.54 | 6.71 | –
8 | CC[C@@H]1CN2CC[C@]3(Nc4cccc(O)c4C3=O)[C@@H]2C[C@@H]1/C(=C\OC)C(=O)OC | Not Active | 0.18 | 124 | 8.70 | – | 8.85 | 6.77 | 8.21 | 6.53 | –
9 | CC1(C)SSC(C)(C)[C@@H](NC(=O)[C@@H](N)Cc2ccc(O)cc2)C(=O)NCC(=O)N[C@@H](Cc2ccccc2)C(=O)N[C@H]1C(=O)O | – | – | – | – | – | – | – | – | – | Activity [17]: inactive
10 | CC[C@@H]1CN2CC[C@]3(Nc4cccc(-c5ccoc5)c4C3=O)[C@@H]2C[C@@H]1/C(=C\OC)C(=O)OC | Not Active | 1.1 | 100 | 8.82 | 6.69 | 9.03 | 7.41 | 8.82 | 7.41 | –
11 | CC[C@@H]1CN2CC[C@]3(Nc4cccc(C#N)c4C3=O)[C@@H]2C[C@@H]1/C(=C\OC)C(=O)OC | Not Active | 0.32 | 122 | 9.15 | 6.14 | 9.30 | 7.33 | 8.62 | 7.14 | –
12 | CC[C@@H]1CN2CC[C@@]3(C(=O)c4c(OC)cccc4N3C)[C@@H]2C[C@@H]1/C(=C\OC)C(=O)OC | – | – | – | – | – | 6.43 | < 6.00 | < 6.00 | – | –
13 | C[C@@H](NC(=O)[C@@H](N)Cc1ccc(O)cc1)C(=O)NCC(=O)N(C)[C@@H](Cc1ccccc1)C(=O)NCCO [DAMGO] | Active | – | – | – | – | – | – | – | – | –
